Measurements taken from US20120108811A1, “PROCESS FOR PREPARING TEMOZOLOMIDE” (FORMOSA LABORATORIES INC., priority 2010, published 2012).

Tests used:
[1] = Long-term stability of Temozolomide prepared by conventional method, 2-8° C.; format: physicochemical; settings: for Purity (HPLC) NLT 99.0% / Total impurities NMT 1.00% / Water content (KF), NMT 1.00% / AICA NMT 0.15% / Appearance (White to off-white powder) / Assay (HPLC) (98.0-102.0%) / Individual unknown impurity NMT 0.10%: conventional method, 2-8° C.
Protocol: The Temozolomide was stable at temperature 2-8° C.

[2] = Long-term stability of Temozolomide prepared by the process of the present invention, 2-8° C.; format: physicochemical; settings: for AICA NMT 0.15% / Appearance (White to off-white powder) / Assay (HPLC) (98.0-102.0%) / Purity (HPLC) NLT 99.0% / Total impurities NMT 1.00% / Water content (KF), NMT 1.00%: process of the present invention, 2-8° C.
Protocol: The Temozolomide was stable at temperature 2-8° C. for at least 18 months.

Purity (HPLC) NLT 99.0% ([1]; 1 month): 100.0%
Total impurities NMT 1.00% ([1]; 1 month): 0.03%
Water content (KF), NMT 1.00% ([1]; 1 month): 0.36%
AICA NMT 0.15% ([1]; 2 months): 0.04%
Appearance (White to off-white powder) ([1]; 2 months): White
Assay (HPLC) (98.0-102.0%) ([1]; 2 months): 99.8%
Individual unknown impurity NMT 0.10% ([1]; 2 months): 0.01%
Purity (HPLC) NLT 99.0% ([1]; 2 months): 99.9%
Total impurities NMT 1.00% ([1]; 2 months): 0.06%
Water content (KF), NMT 1.00% ([1]; 2 months): 0.20%
AICA NMT 0.15% ([1]; 3 months): 0.01%
Appearance (White to off-white powder) ([1]; 3 months): Light beige
Assay (HPLC) (98.0-102.0%) ([1]; 3 months): 99.6%
Individual unknown impurity NMT 0.10% ([1]; 3 months): 0.01%
Purity (HPLC) NLT 99.0% ([1]; 3 months): 100.0%
Total impurities NMT 1.00% ([1]; 3 months): 0.03%
Water content (KF), NMT 1.00% ([1]; 3 months): 0.14%
AICA NMT 0.15% ([1]; 6 months): 0.01%
Appearance (White to off-white powder) ([1]; 6 months): Light beige
Assay (HPLC) (98.0-102.0%) ([1]; 6 months): 99.7%
Individual unknown impurity NMT 0.10% ([1]; 6 months): 0.01%
Purity (HPLC) NLT 99.0% ([1]; 6 months): 99.9%
Total impurities NMT 1.00% ([1]; 6 months): 0.05%
Water content (KF), NMT 1.00% ([1]; 6 months): 0.34%
AICA NMT 0.15% ([1]; 9 months): 0.04%
Appearance (White to off-white powder) ([1]; 9 months): Light beige
Assay (HPLC) (98.0-102.0%) ([1]; 9 months): 98.5%
Individual unknown impurity NMT 0.10% ([1]; 9 months): 0.01%
Purity (HPLC) NLT 99.0% ([1]; 9 months): 99.9%
Total impurities NMT 1.00% ([1]; 9 months): 0.05%
Water content (KF), NMT 1.00% ([1]; 9 months): 0.21%
AICA NMT 0.15% ([1]; 12 months): 0.06%
Appearance (White to off-white powder) ([1]; 12 months): Light beige
Assay (HPLC) (98.0-102.0%) ([1]; 12 months): 99.2%
Individual unknown impurity NMT 0.10% ([1]; 12 months): 0.02%
Purity (HPLC) NLT 99.0% ([1]; 12 months): 99.8%
Total impurities NMT 1.00% ([1]; 12 months): 0.09%
Water content (KF), NMT 1.00% ([1]; 12 months): 0.11%
Long-term stability (in words) ([1]; prepared by conventional method, temperature 2-8° C.): stable
Time stable ([2]; prepared by the process of the present invention, temperature 2-8° C.): at least 18 months
AICA NMT 0.15% ([2]; 0 time): 0.01%
Appearance (White to off-white powder) ([2]; 0 time): White
Assay (HPLC) (98.0-102.0%) ([2]; 0 time): 99.7%
Purity (HPLC) NLT 99.0% ([2]; 0 time): 100.0%
Total impurities NMT 1.00% ([2]; 0 time): 0.01%
Water content (KF), NMT 1.00% ([2]; 0 time): 0.09%
AICA NMT 0.15% ([2]; 1 month): 0.01%
Appearance (White to off-white powder) ([2]; 1 month): White
Assay (HPLC) (98.0-102.0%) ([2]; 1 month): 98.6%
Purity (HPLC) NLT 99.0% ([2]; 1 month): 100.0%
Total impurities NMT 1.00% ([2]; 1 month): 0.01%
Water content (KF), NMT 1.00% ([2]; 1 month): 0.07%
AICA NMT 0.15% ([2]; 2 months): 0.01%
Appearance (White to off-white powder) ([2]; 2 months): White
Assay (HPLC) (98.0-102.0%) ([2]; 2 months): 99.3%
Purity (HPLC) NLT 99.0% ([2]; 2 months): 100.0%
Total impurities NMT 1.00% ([2]; 2 months): 0.01%
Water content (KF), NMT 1.00% ([2]; 2 months): 0.04%
AICA NMT 0.15% ([2]; 3 months): 0.09%
Appearance (White to off-white powder) ([2]; 3 months): White
Assay (HPLC) (98.0-102.0%) ([2]; 3 months): 99.6%
Purity (HPLC) NLT 99.0% ([2]; 3 months): 99.7%
Total impurities NMT 1.00% ([2]; 3 months): 0.09%
Water content (KF), NMT 1.00% ([2]; 3 months): 0.09%
Appearance (White to off-white powder) ([2]; 6 months): White
Assay (HPLC) (98.0-102.0%) ([2]; 6 months): 99.9%
Purity (HPLC) NLT 99.0% ([2]; 6 months): 100.0%
Water content (KF), NMT 1.00% ([2]; 6 months): 0.12%
AICA NMT 0.15% ([2]; 9 months): 0.01%
Appearance (White to off-white powder) ([2]; 9 months): White
Assay (HPLC) (98.0-102.0%) ([2]; 9 months): 100.8%
Purity (HPLC) NLT 99.0% ([2]; 9 months): 100.0%
Total impurities NMT 1.00% ([2]; 9 months): 0.01%
Water content (KF), NMT 1.00% ([2]; 9 months): 0.15%
AICA NMT 0.15% ([2]; 12 months): 0.02%
Appearance (White to off-white powder) ([2]; 12 months): Light pink
Assay (HPLC) (98.0-102.0%) ([2]; 12 months): 99.8%
Purity (HPLC) NLT 99.0% ([2]; 12 months): 100.0%
Total impurities NMT 1.00% ([2]; 12 months): 0.02%
Water content (KF), NMT 1.00% ([2]; 12 months): 0.06%
Appearance (White to off-white powder) ([2]; 18 months): White
Assay (HPLC) (98.0-102.0%) ([2]; 18 months): 99.8%
Purity (HPLC) NLT 99.0% ([2]; 18 months): 100.0%
Water content (KF), NMT 1.00% ([2]; 18 months): 0.16%
SMILES: Cn1nnc2c(C(N)=O)ncn2c1=O [Temozolomide, 8-carbamoyl-3-methyl-imidazo[5,1-d]-1,2,3,5-tetrazin-4(3H)-one]
